According to patent US9156796B2, “Benzoimidazole-carboxylic acid amide derivatives as APJ receptor modulators” (SANOFI, priority 2013, dated 2015):

Molecular target: T1, human apelin receptor (Homo sapiens, UniProt P35414)
T1 construct: expressed in transfected cells
T1 sequence (P35414 1-380): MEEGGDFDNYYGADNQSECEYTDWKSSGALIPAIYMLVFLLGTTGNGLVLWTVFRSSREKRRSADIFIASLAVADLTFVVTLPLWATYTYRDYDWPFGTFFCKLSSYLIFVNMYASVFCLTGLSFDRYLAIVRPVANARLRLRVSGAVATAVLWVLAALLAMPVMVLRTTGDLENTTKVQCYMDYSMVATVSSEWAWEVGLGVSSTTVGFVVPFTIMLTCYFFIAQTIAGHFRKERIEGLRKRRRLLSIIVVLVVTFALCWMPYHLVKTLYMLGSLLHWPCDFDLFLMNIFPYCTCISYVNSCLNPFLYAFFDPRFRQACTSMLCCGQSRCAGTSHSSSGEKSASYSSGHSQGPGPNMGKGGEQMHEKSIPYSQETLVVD
Experiment: Determination of agonism on the human apelin receptor by a calcium fluorescence assay (FLIPR)
Format: cell-based
Details: HEK293 cells stably transfected with human apelin receptor and Giaq protein, Fluo-4 calcium fluorescence, read-out: EC50 (APJ agonism)
Text: Determination of Agonism on the Human Apelin Receptor by a Calcium Fluorescence Assay (FLIPR)
The assay is based on the detection of intracellular calcium changes detected by the selective, calcium-chelating dye Fluo-4 (Molecular Probes). A large fluorescence intensity increase is observed upon calcium association with Fluo-4. The dye is delivered to the cell interior using an acetoxymethylester form of Fluo-4, where the intracellular esterase activity results in the charged species being released and trapped within the cytoplasm of the cell. […] By co-expressing the human apelin receptor and a promiscuous Giaq protein, agonism of the apelin receptor couples to phospholipase-C resulting in intracellular calcium mobilization.
The HEK293 cells were stably transfected with the human apelin receptor and the Giaq protein. Cells were selected and maintained in a log phase of growth at 37° and 5% CO2 in the Iscove's minimal essential medium, 10% fetal calf serum, 1× Penicillin-Streptomycin, 400 μg/mL G418. One day prior the assay, cells were passaged by accutase and plated at a density of 50,000 cells/well onto a 96-well plates with black border but clear bottom (Costar, cat#3904) in a final volume of 200 μl growth medium.
In order to load the cells the next day with the calcium-sensitive dye, growth medium was carefully replaced by dye solution (100 μl/well) containing Fluo-4 (4 μM) in basic measurement buffer (135 mM NaCl, 5 mM KCl, 1 mM magnesium sulphate, 5 mM glucose, 20 mM Hepes, 2.5 mM probenecid; adjusted to pH 7.4). Cells were incubated for 1 h at 37° C., and then washed 3× with buffer containing no dye. The washer was programmed to leave a remaining volume of 150 μl after the third wash in the plate.
During the dye-loading of the cells, a serial compound dilution was performed in a separate 96-well plate with overall 4× increased concentrations. Small aliquots of DMSO stock solutions of the compounds (10 mM in 100% DMSO were aliquoted into 150 μl buffer in the first rows of the 96-well plates, and then serially diluted by a factor of 1:3 transferring each time 30 μl to the next rows already containing 60 μl buffer. All compounds were tested in a least 7 concentrations, each condition was performed in triplicates. As comparator, we used freshly prepared apelin-13 solutions, for which also a concentration-response curve was determined at each measurement day. The compound plate was incubated for 10 min after the final dilutions steps at 37° C. before transferring the dye-loaded cell plate and the compound plate into a FLIPR Tetra reader (Molecular Devices). Measurement within this reader started by pipetting the agonist solution (50 μl) on the cell plate. Overall perform 60 reads were performed with an interval of 2 sec. The maximum of the fluorescence transient was used to calculate the agonistic response of the cells. In order to normalize this response, which may vary from plate to plate we set the maximum fluorescence achieved by 1 μM apelin-13 on this plate as 100%.
EC-50 values for apelin-13 and the apelin receptor compounds described in this patent were determined by standard algorithms using a specific software package.

| EC50 [nM] | SMILES |
| --- | --- |
| 16800 | CCC(CC)n1c(Cc2cccs2)nc2cc(C(=O)NC(C)(Cc3ccccc3)C(=O)O)ccc21 (stereo not shown) [Example 4, 2-{[1-(1-Ethyl-propyl)-2-thiophen-2-ylmethyl-1H-benzoimidazole-5-carbonyl]-amino}-2-methyl-3-phenyl-propionic acid] |
| 9870 | CCC(CC)n1c(Cc2cccs2)nc2cc(C(=O)NC(C)(C(=O)O)C(C)C)ccc21 (stereo not shown) [Example 5, 2-{[1-(1-Ethyl-propyl)-2-thiophen-2-ylmethyl-1H-benzoimidazole-5-carbonyl]-amino}-2,3-dimethyl-butyric acid] |
| 3820 | CCC(CC)n1c(Cc2cccs2)nc2cc(C(=O)NC3(C(=O)O)CCCC3)ccc21 [Example 6, 1-{[1-(1-Ethyl-propyl)-2-thiophen-2-ylmethyl-1H-benzoimidazole-5-carbonyl]-amino}-cyclopentanecarboxylic acid] |
| 44300 | CCC(CC)n1c(Cc2cccs2)nc2cc(C(=O)NC(CC)(C(=O)O)c3ccccc3)ccc21 (stereo not shown) [Example 7, 2-{[1-(1-Ethyl-propyl)-2-thiophen-2-ylmethyl-1H-benzoimidazole-5-carbonyl]-amino}-2-phenyl-butyric acid] |
| 107 | CCC(CC)n1c(Cc2ccco2)nc2cc(C(=O)N[C@@H](CC3CCCCC3)C(=O)O)ccc21 [Example 8, (S)-3-Cyclohexyl-2-{[1-(1-ethyl-propyl)-2-furan-2-ylmethyl-1H-benzoimidazole-5-carbonyl]-amino}-propionic acid] |
| 585 | CCC(CC)n1c(Cc2ccco2)nc2cc(C(=O)N[C@H](CC3CCCCC3)C(=O)O)ccc21 [Example 9, (R)-3-Cyclohexyl-2-{[1-(1-ethyl-propyl)-2-furan-2-ylmethyl-1H-benzoimidazole-5-carbonyl]-amino}-propionic acid] |
| 1700 | CCC(CC)n1c(CC2CCCC2)nc2cc(C(=O)N[C@H](CC3CCCCC3)C(=O)O)ccc21 [Example 10, (R)-3-Cyclohexyl-2-[{2-cyclopentylmethyl-1-(1-ethyl-propyl)-1H-benzoimidazole-5-carbonyl]-amino}-propionic acid] |
| 65 | CCC(CC)n1c(Cc2cccs2)nc2cc(C(=O)NC(CC3CCCC3)C(=O)O)ccc21 (stereo not shown) [Example 11, 3-Cyclopentyl-2-{[1-(1-ethyl-propyl)-2-thiophen-2-ylmethyl-1H-benzoimidazole-5-carbonyl]-amino}-propionic acid] |
| 818 | CCC(CC)n1c(Cc2cccs2)nc2cc(C(=O)NC(C)(CC(C)C)C(=O)O)ccc21 (stereo not shown) [Example 12, 2-{[1-(1-Ethyl-propyl)-2-thiophen-2-ylmethyl-1H-benzoimidazole-5-carbonyl]-amino}-2,4-dimethyl-pentanoic acid] |
| 535 | CCC(CC)n1c(Cc2ccco2)nc2cc(C(=O)NC(C)(CC(C)C)C(=O)O)ccc21 (stereo not shown) [Example 13, 2-{[1-(1-Ethyl-propyl)-2-furan-2-ylmethyl-1H-benzoimidazole-5-carbonyl]-amino}-2,4-dimethyl-pentanoic acid] |
| 1340 | CCC(CC)n1c(Cc2ccco2)nc2cc(C(=O)NC(C)(CCSC)C(=O)O)ccc21 (stereo not shown) [Example 14, 2-{[1-(1-Ethyl-propyl)-2-furan-2-ylmethyl-1H-benzoimidazole-5-carbonyl]-amino}-2-methyl-4-methylsulfanyl-butyric acid] |
| 254 | CC1CCCCC1n1c(Cc2cccs2)nc2cc(C(=O)N[C@@H](CC3CCCCC3)C(=O)O)ccc21 (stereo partly drawn) [Example 15, (S)-3-Cyclohexyl-2-{[1-(2-methyl-cyclohexyl)-2-thiophen-2-ylmethyl-1H-benzoimidazole-5-carbonyl]-amino}-propionic acid] |
| 117 | CCCC[C@H](NC(=O)c1ccc2c(c1)nc(Cc1cccs1)n2C1CCCCC1C)C(=O)O (stereo partly drawn) [Example 16, (S)-2-{[1-(2-Methyl-cyclohexyl)-2-thiophen-2-ylmethyl-1H-benzoimidazole-5-carbonyl]-amino}-hexanoic acid] |
| 935 | O=C(N[C@@H](CC1CCCCC1)C(=O)O)c1ccc2c(c1)nc(Cc1cccs1)n2C1CCCCC1C(F)(F)F (stereo partly drawn) [Example 17, (S)-3-Cyclohexyl-2-{[2-thiophen-2-ylmethyl-1-(2-trifluoromethyl-cyclohexyl)-1H-benzoimidazole-5-carbonyl]-amino}-propionic acid] |
| 150 | CCCC[C@H](NC(=O)c1ccc2c(c1)nc(Cc1cccs1)n2C(CC)CC)C(=O)O [Example 18, (S)-2-{[1-(1-Ethyl-propyl)-2-thiophen-2-ylmethyl-1H-benzoimidazole-5-carbonyl]-amino}-hexanoic acid] |
| 5030 | CCC(CC)n1c(Cc2cccs2)nc2cc(C(=O)N[C@@H](Cc3ccc(F)cc3)C(=O)O)ccc21 [Example 19, (S)-2-{[1-(1-Ethyl-propyl)-2-thiophen-2-ylmethyl-1H-benzoimidazole-5-carbonyl]-amino}-3-(4-fluoro-phenyl)-propionic acid] |
| 1830 | CCC(CC)n1c(Cc2cccs2)nc2cc(C(=O)N[C@@H](Cc3ccc(Cl)cc3)C(=O)O)ccc21 [Example 20, (S)-3-(4-Chloro-phenyl)-2-{[1-(1-ethyl-propyl)-2-thiophen-2-ylmethyl-1H-benzoimidazole-5-carbonyl]-amino}-propionic acid] |
| 443 | CCC(CC)n1c(Cc2cccs2)nc2cc(C(=O)N[C@@H](CC3CC3)C(=O)O)ccc21 [Example 21, (S)-3-Cyclopropyl-2-{[1-(1-ethyl-propyl)-2-thiophen-2-ylmethyl-1H-benzoimidazole-5-carbonyl]-amino}-propionic acid] |
| 80 | CCC(CC)n1c(Cc2cccs2)nc2cc(C(=O)N[C@@H](CC3CCC3)C(=O)O)ccc21 [Example 22, (S)-3-Cyclobutyl-2-{[1-(1-ethyl-propyl)-2-thiophen-2-ylmethyl-1H-benzoimidazole-5-carbonyl]-amino}-propionic acid] |
| 106 | C[C@@H]1CCCC[C@H]1n1c(Cc2cccs2)nc2cc(C(=O)N[C@@H](CC3CCC3)C(=O)O)ccc21 [Example 23, (S)-3-Cyclobutyl-2-{[1-((1R,2R)-2-methyl-cyclohexyl)-2-thiophen-2-ylmethyl-1H-benzoimidazole-5-carbonyl]-amino}-propionic acid] |
| 219 | CCC(CC)n1c(Cc2cccs2)nc2cc(C(=O)NC3(C(=O)O)CCCCC3)ccc21 [Example 24, 1-{[1-(1-Ethyl-propyl)-2-thiophen-2-ylmethyl-1H-benzoimidazole-5-carbonyl]-amino}-cyclohexanecarboxylic acid] |
| 4750 | CCCC(C)(NC(=O)c1ccc2c(c1)nc(Cc1cccs1)n2C(CC)CC)C(=O)O (stereo not shown) [Example 25, 2-{[1-(1-Ethyl-propyl)-2-thiophen-2-ylmethyl-1H-benzoimidazole-5-carbonyl]-amino}-2-methyl-pentanoic acid] |
| 5300 | CCC(CC)n1c(Cc2cccs2)nc2cc(C(=O)NC(CCC(F)(F)F)C(=O)O)ccc21 (stereo not shown) [Example 26, 2-{[1-(1-Ethyl-propyl)-2-thiophen-2-ylmethyl-1H-benzoimidazole-5-carbonyl]-amino}-5,5,5-trifluoro-pentanoic acid] |
| 1860 | C[C@@H]1CCCC[C@H]1n1c(Cc2cccs2)nc2cc(C(=O)NC(CCC(F)(F)F)C(=O)O)ccc21 (stereo partly drawn) [Example 27, 5,5,5-Trifluoro-2-{[1-((1R,2R)-2-methyl-cyclohexyl)-2-thiophen-2-ylmethyl-1H-benzoimidazole-5-carbonyl]-amino}-pentanoic acid] |
| 18500 | CCC(CC)n1c(Cc2cccs2)nc2cc(C(=O)NC(CCc3ccccc3)C(=O)O)ccc21 (stereo not shown) [Example 28, 2-{[1-(1-Ethyl-propyl)-2-thiophen-2-ylmethyl-1H-benzoimidazole-5-carbonyl]-amino}-4-phenyl-butyric acid] |
